The results in this text go back to patent US20100016343A1 (WYETH, priority 2008, published 2010).

Like-named read-outs stand apart in the source and are kept apart here.

For one series, the target named is T1, rat-alpha7-nAChR (Rattus norvegicus, UniProt Q05941).
T1 construct: expressed in transfected cells
Put plainly: functional FLIPR assay, alpha7 nAChR stably expressed in GH4C1 cells. The class given is cell-based. An excerpt: Rat GH4C1 cells were then transfected with the rat receptor, cloned and analyzed for functional alpha7 nicotinic receptor expression employing a FLIPR assay to measure changes in intracellular calcium concentrations.
The FLIPR system allows the measurements of real time Ca^2+-concentration changes in living cells using a Ca^2+ sensitive fluorescence dye (such as Fluo4). This instrument enables the screening for agonists and antagonists for alpha 7 nAChR channels stably expressed in GH4C1 cells.
GH4C1 cells stably transfected with rat-alpha7-nAChR (see above) were used. These cells are poorly adherent and therefore pretreatment of flasks and plates with poly-D-lysine was carried out. Cells are grown in 150 cm^2 T-flasks, filled with 30 ml of medium at 37° C. and 5% CO2.
EC50 and IC50 values were calculated using the IDBS XLfit4.1 software package employing a sigmoidal concentration-response (variable slope) equation:
Y=Bottom+((Top−Bottom)/(1+((EC50/X)̂HillSlope))
Certain compounds of the present disclosure were tested using the functional FLIPR primary screening assay employing the stable recombinant GH4C1 cell line expressing the alpha7 nAChR.

The target of series [1] is T2, alpha3 (ganglionic) nACh receptors (Homo sapiens, UniProt P30926+P32297).
T2 construct: using the native SH-SY5Y cell line; endogenous in cells; host or cells: SH-SY5Y
Put plainly: calcium-monitoring FLIPR selectivity assay using the native SH-SY5Y cell line. The class given is cell-based. To be noted: read-out: Alpha 3 EC50. An excerpt:
Functional FLIPR assays were developed in order to test the selectivity of compounds against the alpha1 (muscular) and alpha3 (ganglionic) nACh receptors and the structurally related 5-HT3 receptor. […] In order to test selectivity against the 5-HT3 receptor, a recombinant cell line was constructed expressing the human 5-HT3A receptor in HEK 293 cells and a calcium-monitoring FLIPR assay employed.

The next series concerns the target CYP3A4 (Homo sapiens, UniProt P08684). Put plainly: CYP3A4 % inhibition. In kind it is in vitro ADME.
The next series addresses CYP2D6 (Homo sapiens, UniProt P10635). Briefly: CYP2D6 % inhibition. The class given is in vitro ADME.
Another series deals with CYP2C9 (Homo sapiens, UniProt P11712). Briefly: CYP2C9 % inhibition. In kind it is in vitro ADME.
Where [2] appears, read: GH4C1 cell line expressing the alpha7 nAChR, concentration-response curves, read-out: Alpha 7 EC50.

Sequence of CYP2C9 (P11712 whole entry, species assumed): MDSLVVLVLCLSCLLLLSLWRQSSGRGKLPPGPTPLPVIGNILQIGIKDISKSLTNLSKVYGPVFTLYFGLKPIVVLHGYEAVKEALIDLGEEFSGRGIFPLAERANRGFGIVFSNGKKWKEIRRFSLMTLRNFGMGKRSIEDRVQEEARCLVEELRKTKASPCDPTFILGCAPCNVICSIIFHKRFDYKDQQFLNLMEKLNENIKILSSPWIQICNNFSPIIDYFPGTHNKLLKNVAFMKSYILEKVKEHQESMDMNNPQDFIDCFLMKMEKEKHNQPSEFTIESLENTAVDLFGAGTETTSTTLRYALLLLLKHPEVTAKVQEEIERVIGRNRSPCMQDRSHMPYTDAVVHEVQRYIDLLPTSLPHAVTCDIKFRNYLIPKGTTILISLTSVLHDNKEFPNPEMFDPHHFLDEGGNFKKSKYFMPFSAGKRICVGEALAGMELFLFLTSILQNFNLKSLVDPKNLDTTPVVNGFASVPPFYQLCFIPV
T1 sequence (Q05941 23-502): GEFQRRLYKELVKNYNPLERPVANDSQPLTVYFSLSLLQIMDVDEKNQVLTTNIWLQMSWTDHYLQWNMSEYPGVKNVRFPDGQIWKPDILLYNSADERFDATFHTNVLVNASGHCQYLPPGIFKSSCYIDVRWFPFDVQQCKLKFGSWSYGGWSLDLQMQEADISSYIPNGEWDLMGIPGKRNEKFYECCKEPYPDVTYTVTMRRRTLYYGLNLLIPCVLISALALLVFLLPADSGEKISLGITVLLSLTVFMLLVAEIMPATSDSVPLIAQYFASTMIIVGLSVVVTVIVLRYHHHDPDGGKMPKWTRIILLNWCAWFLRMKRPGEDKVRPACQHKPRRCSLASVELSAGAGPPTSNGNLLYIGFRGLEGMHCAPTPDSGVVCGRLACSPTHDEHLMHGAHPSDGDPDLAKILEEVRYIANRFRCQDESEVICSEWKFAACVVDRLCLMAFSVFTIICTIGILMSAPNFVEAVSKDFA
Sequence of CYP3A4 (P08684 whole entry, species assumed): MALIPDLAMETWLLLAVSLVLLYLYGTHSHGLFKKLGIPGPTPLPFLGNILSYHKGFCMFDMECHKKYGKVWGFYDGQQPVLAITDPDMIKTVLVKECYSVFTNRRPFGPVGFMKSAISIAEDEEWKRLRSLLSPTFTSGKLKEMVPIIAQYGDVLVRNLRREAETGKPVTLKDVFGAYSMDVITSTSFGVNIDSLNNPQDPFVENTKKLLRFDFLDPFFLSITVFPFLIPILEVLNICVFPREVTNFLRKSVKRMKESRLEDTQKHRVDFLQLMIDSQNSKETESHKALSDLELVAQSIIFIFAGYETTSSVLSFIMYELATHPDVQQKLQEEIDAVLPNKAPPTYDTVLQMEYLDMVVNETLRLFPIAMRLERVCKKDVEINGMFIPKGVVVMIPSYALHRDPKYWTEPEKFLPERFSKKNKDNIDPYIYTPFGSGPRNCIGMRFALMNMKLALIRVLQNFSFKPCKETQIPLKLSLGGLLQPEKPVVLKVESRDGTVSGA
T2 sequence (P32297 32-505): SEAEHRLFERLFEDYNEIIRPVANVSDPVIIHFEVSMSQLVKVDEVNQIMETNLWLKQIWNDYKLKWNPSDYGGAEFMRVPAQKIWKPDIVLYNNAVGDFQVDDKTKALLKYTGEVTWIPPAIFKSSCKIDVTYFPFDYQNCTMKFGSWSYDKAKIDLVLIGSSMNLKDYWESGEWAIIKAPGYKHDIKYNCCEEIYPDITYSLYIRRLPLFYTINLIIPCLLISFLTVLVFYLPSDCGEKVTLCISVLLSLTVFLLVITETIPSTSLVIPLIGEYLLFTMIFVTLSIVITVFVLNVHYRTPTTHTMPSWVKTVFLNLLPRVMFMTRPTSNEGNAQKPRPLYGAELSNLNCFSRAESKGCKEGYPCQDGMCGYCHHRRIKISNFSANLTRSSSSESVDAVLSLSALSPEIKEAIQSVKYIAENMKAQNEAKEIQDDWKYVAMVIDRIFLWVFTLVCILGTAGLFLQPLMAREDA
T2 sequence (P30926 22-498): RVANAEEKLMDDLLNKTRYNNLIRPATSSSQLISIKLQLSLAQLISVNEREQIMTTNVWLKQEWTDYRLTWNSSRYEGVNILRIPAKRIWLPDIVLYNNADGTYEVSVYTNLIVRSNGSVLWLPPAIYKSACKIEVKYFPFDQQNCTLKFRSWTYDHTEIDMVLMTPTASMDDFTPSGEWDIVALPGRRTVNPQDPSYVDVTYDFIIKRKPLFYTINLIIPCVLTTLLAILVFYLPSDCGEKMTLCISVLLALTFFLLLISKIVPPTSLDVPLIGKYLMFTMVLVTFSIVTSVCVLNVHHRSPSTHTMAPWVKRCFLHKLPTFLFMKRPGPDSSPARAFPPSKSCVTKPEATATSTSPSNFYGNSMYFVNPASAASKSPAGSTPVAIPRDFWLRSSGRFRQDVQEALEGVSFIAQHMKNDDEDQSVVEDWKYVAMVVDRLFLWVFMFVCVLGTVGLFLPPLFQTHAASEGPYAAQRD
Sequence of CYP2D6 (P10635 whole entry, species assumed): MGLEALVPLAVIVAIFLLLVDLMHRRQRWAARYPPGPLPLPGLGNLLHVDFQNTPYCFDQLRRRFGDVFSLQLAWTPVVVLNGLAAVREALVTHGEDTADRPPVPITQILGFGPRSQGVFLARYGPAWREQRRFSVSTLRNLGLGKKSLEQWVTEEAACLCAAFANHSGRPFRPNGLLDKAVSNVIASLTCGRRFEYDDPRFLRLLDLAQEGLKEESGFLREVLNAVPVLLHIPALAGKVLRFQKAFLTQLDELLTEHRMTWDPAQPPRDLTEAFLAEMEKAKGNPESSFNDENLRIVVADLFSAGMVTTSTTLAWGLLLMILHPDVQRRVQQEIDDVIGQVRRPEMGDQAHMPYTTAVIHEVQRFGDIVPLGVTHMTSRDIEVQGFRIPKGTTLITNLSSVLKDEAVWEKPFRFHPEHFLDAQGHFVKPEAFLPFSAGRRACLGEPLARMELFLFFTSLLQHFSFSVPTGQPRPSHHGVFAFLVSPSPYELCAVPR

In the case of `Cn1cc(-c2ccc(NC(=O)NCCCCN3CCCCC3)cn2)cn1`, the EC50 at rat-alpha7-nAChR (setting [2]) is 0.45 µM; in series [1] it was greater than 30 µM. Besides, at CYP3A4, the CYP3A4 % inhibition is −4%. On CYP2D6, this compound yielded a CYP2D6 % inhibition of 1%. The CYP2C9 % inhibition at CYP2C9 stood at 3%.
The like results for `Cn1cc(-c2ccc(NC(=O)NCCCCN3CCCCC3)cc2)cn1` were, in that order, 0.13 µM, 5.04 µM, 68%, 45% and 9%.
The like results for `O=C(NCCCCN1CCCCC1)Nc1ccc(-c2ccccc2F)nc1` were, in that order, 0.2 µM, 5.55 µM, −3%, 14% and −10%.
The like results for `O=C(NCCCCN1CCCCC1)Nc1ccc(-c2ccccc2F)cc1` were, in that order, 0.19 µM, 1.5 µM, −17%, 75% and −1%.
On to `COc1ccc(F)c(-c2ccc(NC(=O)NCCCCN3CCCCC3)cn2)c1`, for which the EC50 on rat-alpha7-nAChR (setting [2]) is 0.08 µM; in series [1], 4.34 µM. The CYP3A4 % inhibition on CYP3A4 came out at 43%. Also, the CYP2D6 % inhibition at CYP2D6 came to 18%. Moreover, the CYP2C9 % inhibition on CYP2C9 was 10%.
With `COc1ccc(F)c(-c2ccc(NC(=O)NCCCCN3CCCCC3)cc2)c1`, the concentration giving a half-maximal response (EC50) at rat-alpha7-nAChR (setting [2]) came to 0.1 µM; in series [1], 2.32 µM. Further, the CYP3A4 % inhibition on CYP3A4 was 51%. In addition, on CYP2D6, the CYP2D6 % inhibition came out at 83%. At CYP2C9, the CYP2C9 % inhibition is −26%.
The like results for `COc1ccccc1-c1ccc(NC(=O)NCCCCN2CCCCC2)cn1` were, in that order, 0.26 µM, 3.86 µM, 8%, 8% and 6%.
The like results for `COc1ccccc1-c1ccc(NC(=O)NCCCCN2CCCCC2)cc1` were, in that order, 0.17 µM, 1.08 µM, 5%, 38% and −2%.
The like results for `O=C(NCCCCN1CCCCC1)Nc1ccc(-c2cccs2)nc1` were, in that order, 0.1 µM, 8.43 µM, 2%, 7% and 2%.
Take `O=C(NCCCCN1CCCCC1)Nc1ccc(-c2cccs2)cc1`: the EC50 on rat-alpha7-nAChR (setting [2]) is 0.19 µM; in series [1], 3.56 µM. In addition, on CYP3A4, the CYP3A4 % inhibition was 24%. On CYP2D6, this compound displayed a CYP2D6 % inhibition of 69%. In addition, the CYP2C9 % inhibition at CYP2C9 is −5%.
For the compound `O=C(NCCCCN1CCCCC1)Nc1ccc(-c2cccc(F)c2)nc1`, at rat-alpha7-nAChR (setting [2]), the concentration for a half-maximal effect (EC50) was 0.18 µM. For the same compound, at CYP3A4, the CYP3A4 % inhibition came out at 26%. On CYP2D6, the CYP2D6 % inhibition is recorded as 10%. In addition, on CYP2C9, the CYP2C9 % inhibition came out at 0%.
As for `O=C(NCCCCN1CCCCC1)Nc1ccc(-c2cccc(F)c2)cc1`, the values for the EC50 (on rat-alpha7-nAChR (setting [2]); in series [1]) were 0.11 µM and 1.78 µM, respectively. For the same compound, on CYP3A4, the CYP3A4 % inhibition is on record as −21%. At CYP2D6, the CYP2D6 % inhibition turned out to be 62%. The CYP2C9 % inhibition at CYP2C9 is −12%.
The like results for `O=C(NCCCCN1CCCCC1)Nc1ccc(-c2cccnc2)nc1` were, in that order, 0.59 µM, 9.88 µM, 0%, 22% and −3%.
For `O=C(NCCCCN1CCCCC1)Nc1ccc(-c2cccnc2)cc1`, the values for the EC50 (on rat-alpha7-nAChR (setting [2]); in series [1]) were 0.1 µM and 3.61 µM, respectively. Further, at CYP3A4, the CYP3A4 % inhibition turned out to be 2%. On CYP2D6, the CYP2D6 % inhibition worked out at 72%. Moreover, the CYP2C9 % inhibition at CYP2C9 is listed as −22%.
As for `O=C(NCCCCN1CCCCC1)Nc1ccc(-c2ccc(F)cc2)nc1`, the 50% effective concentration (EC50) in series [1] was determined as 9.53 µM.
`O=C(NCCCCN1CCCCC1)Nc1ccc(-c2ccc(F)cc2)cc1`: the half-maximal effective concentration (EC50) at rat-alpha7-nAChR (setting [2]) stood at 0.22 µM; in series [1], 1.73 µM. Besides, the CYP3A4 % inhibition at CYP3A4 was −13%. In addition, the CYP2D6 % inhibition on CYP2D6 is given as 65%. In addition, the CYP2C9 % inhibition at CYP2C9 is listed as −16%.
For `O=C(NCCCC[N+]1([O-])CCCCC1)Nc1ccc(-c2ccc(F)cc2)nc1`, the figures for the concentration for a half-maximal effect (EC50) (at rat-alpha7-nAChR (setting [2]); in series [1]) were 0.46 µM and 9.8 µM, respectively.
For the compound `O=C(NCCCCN1CCCCC1)Nc1ccc(-c2ccc(F)nc2)nc1`, the EC50 at rat-alpha7-nAChR (setting [2]) was 0.72 µM. Besides, the CYP3A4 % inhibition on CYP3A4 is −19%. The compound further showed a CYP2D6 % inhibition at CYP2D6 of 8%. For the same compound, the CYP2C9 % inhibition at CYP2C9 was −10%.
As for `O=C(NCCCCN1CCCCC1)Nc1ccc(-c2ccc(F)nc2)cc1`, the figures for the concentration for a half-maximal effect (EC50) (on rat-alpha7-nAChR (setting [2]); in series [1]) were 0.13 µM and 1.21 µM, respectively. The CYP3A4 % inhibition on CYP3A4 was −22%. The compound further gave a CYP2D6 % inhibition on CYP2D6 of 21%. Moreover, at CYP2C9, the CYP2C9 % inhibition is recorded as −18%.
The like results for `COc1ccc(-c2ccc(NC(=O)NCCCCN3CCCCC3)cn2)cc1` were, in that order, 0.26 µM, 4.12 µM, −8%, 54% and −15%.
As for `COc1ccc(-c2ccc(NC(=O)NCCCCN3CCCCC3)cc2)cc1`, the figures for the EC50 (on rat-alpha7-nAChR (setting [2]); in series [1]) were 0.22 µM and 1.77 µM, respectively. Further, on CYP3A4, the CYP3A4 % inhibition is 32%. The compound further registered a CYP2D6 % inhibition on CYP2D6 of 97%. In addition, the CYP2C9 % inhibition at CYP2C9 is −14%.
With `O=C(NCCCCN1CCCCC1)Nc1ccc(-c2ccc3c(c2)OCO3)nc1`, on rat-alpha7-nAChR (setting [2]), the 50% effective concentration (EC50) was 0.14 µM. Further, at CYP3A4, the CYP3A4 % inhibition was found to be 65%. The compound further showed a CYP2D6 % inhibition on CYP2D6 of 79%. Also, the CYP2C9 % inhibition at CYP2C9 is 6%.
`O=C(NCCCCN1CCCCC1)Nc1ccc(-c2ccc3c(c2)OCO3)cc1`: the EC50 at rat-alpha7-nAChR (setting [2]) is 0.1 µM; in series [1], 1.72 µM. Moreover, the CYP3A4 % inhibition at CYP3A4 worked out at 74%. At CYP2D6, this compound returned a CYP2D6 % inhibition of 97%. For the same compound, the CYP2C9 % inhibition on CYP2C9 is on record as 0%.
With `O=C(NCCCCN1CCCCC1)Nc1ccc(-c2ccncc2)nc1`, the EC50 on rat-alpha7-nAChR (setting [2]) worked out at 0.4 µM. Moreover, the CYP3A4 % inhibition on CYP3A4 was −1%. This compound also yielded a CYP2D6 % inhibition at CYP2D6 of 12%. In addition, on CYP2C9, the CYP2C9 % inhibition is 1%.
As for `O=C(NCCCCN1CCCCC1)Nc1ccc(-c2ccncc2)cc1`, the results for the EC50 (at rat-alpha7-nAChR (setting [2]); in series [1]) were 0.18 µM and 2.95 µM, respectively. For the same compound, the CYP3A4 % inhibition at CYP3A4 is 17%. On CYP2D6, this compound gave a CYP2D6 % inhibition of 48%. The CYP2C9 % inhibition at CYP2C9 was determined as 6%.
The like results for `O=C(NCCCCN1CCCCC1)Nc1ccc(-c2ccccc2)nc1` were, in that order, 0.09 µM, 10.1 µM, −21%, 6% and −4%.
The like results for `O=C(NCCCCN1CCCCC1)Nc1ccc(-c2ccccc2)cc1` were, in that order, 0.31 µM, 2.84 µM, 51%, 64% and 2%.
For the compound `C[N+]1(C)CCN(c2ccccc2)CC1` [DMPP, reference compound], at rat-alpha7-nAChR (assay validation with agonists, alpha7 nAChR in GH4C1 cells, concentration range 0.001 to 30 microM, read-out: EC50), the EC50 was determined as 0.98 ± 0.47 µM.
Take `COc1ncccc1-c1ccc(NC(=O)NCCCCN2CCCCC2)cn1` [drawing 62]: the concentration for a half-maximal effect (EC50) in series [1] is 15.7 µM. Further, on CYP3A4, the CYP3A4 % inhibition is reported as −4%. For the same compound, at CYP2D6, the CYP2D6 % inhibition was 8%. Further, at CYP2C9, the CYP2C9 % inhibition is −12%.
The like results for `COc1ncccc1-c1ccc(NC(=O)NCCCCN2CCCCC2)cn1` [drawing 63] were, in that order, 5.67 µM, −21%, 8% and −36%.

Broadly, the EC50 is the concentration at which the effect is half-maximal.
